Measured values as given in US8969312B2, “Low side effect pharmaceutical composition containing antituberculosis drugs” (priority 2011, dated 2015).

Experiments:
amidase = test: Mouse liver microsomal amidase, isoniazid to isonicotinic acid; type: biochemical
From the text: Mouse liver microsomes were used as the source of amidase, and isoniazid was used as the amidase metabolism drugs. quantitative isoniazid was catalyzed into metabolites isonicotinic acid (INA) by amidase, and was used as the index for measurement of the amidase activity for establishment of the platform for screening in vitro amidase activity inhibitors. The HPLC system includes a Shimadzu the LC-LOAD pump, 1 Shimadzu system control and a Shimadzu autosampler (Shimadzu Scientific Instrument, Japan). A C18 column (particle size 5 μm, inner diameter of 50×4.6 mm, 25 cm) containing 70% methanol and 30% ammonium formate (50 mM, pH=2.5) of the mobile phase for HPLC separation, and the experimental steps are outlined as follows:
(2) An aliquot of 150 μL mouse liver microsomal solution was added to 100 μL isoniazid solution in 35 μL 67 mM potassium phosphate buffer solution ([…], pH=7) with a final concentration at 3 mM, and then mixed thoroughly with 15 μL amidase inhibitor (deionized water was added in the control group). (3) Incubation at 37° C. water bath for 30 minutes. (4) An aliquot of 300 μL acetonitrile (ACN) was added and mixed thoroughly, and incubated for 6 minutes. (5) An aliquot of 30 μL perchloric acid was then mixed and incubated for 6 minutes. (6) The mixture was centrifuged at 13000 g for 6 minutes. (7) After centrifugation, 100 μL of the supernatant was injected into HPLC. (8) Methanol ammonium formate (50 mM, pH=2.5)=70:30 (V/V) was selected as the mobile phase, and the flow rate was controlled at […] and detected at 270 nm UV. […] The amidase inhibition % was then calculated using the following formula: […]

[1] = molecular target: human liver microsomal cytochrome P450 2E1 (CYP2E1) (Homo sapiens, UniProt P05181); test: Human liver microsomal CYP2E1, chlorzoxazone 6-hydroxylation;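 further: chlorzoxazone added as substrate, 6-hydroxychlorzoxazone formation quantified by LC/MS/MS after 30 min at 37 °C with NADP+ regenerating system, compared against solvent control without test sample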
[2] = Table 6, minimum tested concentration (mg/L) × volume of human liver and intestine (3 L)

human liver microsomal cytochrome P450 2E1 (CYP2E1), sequence (P05181 whole entry): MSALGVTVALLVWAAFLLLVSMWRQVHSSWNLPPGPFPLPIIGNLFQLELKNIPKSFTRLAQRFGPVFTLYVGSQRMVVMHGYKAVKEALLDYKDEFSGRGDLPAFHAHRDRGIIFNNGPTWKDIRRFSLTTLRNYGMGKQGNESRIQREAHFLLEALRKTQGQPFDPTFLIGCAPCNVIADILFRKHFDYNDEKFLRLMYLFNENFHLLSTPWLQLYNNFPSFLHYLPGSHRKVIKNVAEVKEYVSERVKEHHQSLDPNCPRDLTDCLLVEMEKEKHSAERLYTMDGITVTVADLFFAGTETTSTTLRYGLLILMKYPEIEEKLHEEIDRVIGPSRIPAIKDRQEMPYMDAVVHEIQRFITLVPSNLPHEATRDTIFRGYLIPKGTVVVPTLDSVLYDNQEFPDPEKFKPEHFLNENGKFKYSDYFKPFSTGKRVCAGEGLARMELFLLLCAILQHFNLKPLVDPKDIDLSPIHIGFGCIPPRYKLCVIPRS

Row | Compound | Amidase inhibition (amidase; 1 uM) [%] | Amidase inhibition (amidase; 10 uM) [%] | Amidase inhibition (amidase; 100 uM) [%] | Minimum Effective Dose [1, 2] [mg] | Inhibition of CYP 2E1 ([1]; 16.5 μM) [%] | Inhibition of CYP 2E1 ([1]; 33 μM) [%] | Inhibition of CYP 2E1 ([1]; 66 μM) [%] | also measured
1 | O=c1c(-c2ccc(O)cc2)coc2cc(O[C@@H]3O[C@H](CO)[C@@H](O)[C@H](O)[C@H]3O)ccc12 [Daidzin] | 3.6 ± 3.0 | 1.1 ± 5.4 | 7.4 ± 6.3 |  |  |  |  | 
2 | COc1cc(C2Oc3cc([C@H]4Oc5cc(O)cc(O)c5C(=O)[C@@H]4O)ccc3OC2CO)ccc1O (some centres unmarked) [Silybin] |  |  |  | 26 |  |  |  | 
3 | CC12CCC(CC1)C(C)(C)O2 [Cineole] | −16.5 ± 17.5 | −4.7 ± 4.9 | 22.9 ± 10.4 |  |  |  |  | 
4 | COc1cc(-c2cc(=O)c3c(O)cc(O)cc3o2)ccc1O [Chrysoeriol] | 7.7 ± 7.1 | 24.9 ± 11.2 | 23.2 ± 1.2 |  |  |  |  | 
5 | O=S(=O)([O-])NC1CCCCC1.[Na+] [Sodium cyclamate] |  |  |  |  | 9.4 ± 2.7 | 1.7 ± 4.7 | 9.1 ± 2.6 | 
6 | COc1ccc(-c2cc(=O)c3c(O)c(OC)c(OC)cc3o2)cc1O [Eupatorin] | 0.9 ± 2.8 | 7.5 ± 0.7 | 12.0 ± 7.4 |  |  |  |  | 
7 | COc1ccc([C@@H]2CC(=O)c3c(O)cc(O[C@@H]4O[C@H](CO)[C@@H](O)[C@H](O)[C@H]4O[C@@H]4O[C@@H](C)[C@H](O)[C@@H](O)[C@H]4O)cc3O2)cc1O [Neohesperidin] |  |  |  | 33 | 42.81 ± 1.75 | 48.96 ± 2.37 | 58.70 ± 1.06 | 
8 | O=C(O[C@@H]1Cc2c(O)cc(O)cc2O[C@@H]1c1cc(O)c(O)c(O)c1)c1cc(O)c(O)c(O)c1 [(−)-Epigallocetechin-3-gallate] |  |  |  |  | 50.19 ± 1.89 | 60.53 ± 2.06 | 72.16 ± 1.02 | 
9 | O=c1c(O)c(-c2ccc(O)c(O)c2)oc2cc(O)ccc12 [Fisetin] | −9.2 ± 2.5 | 38.3 ± 2.0 | 56.4 ± 2.9 |  |  |  |  | 
10 | COc1ccc(O)c(C(C)(C)C)c1 [Butylated hydroxyl anisol] |  |  |  |  | −16.8 ± 0.5 | −47.1 ± 5.1 | −85.5 ± 3.9 | Minimum Effective Dose ([1]; Table 7): 9 mg
11 | C[C@@H]1O[C@@H](OC[C@H]2O[C@@H](Oc3c(-c4ccc(O)c(O)c4)oc4cc(O)cc(O)c4c3=O)[C@H](O)[C@@H](O)[C@@H]2O)[C@H](O)[C@H](O)[C@H]1O [Rutin] |  |  |  | 33 |  |  |  | 
12 | O=[N+]([O-])c1ccc(OP(=O)(O)Oc2ccc([N+](=O)[O-])cc2)cc1 [BNPP, bis-p-nitrophenyl phosphate, reference compound] |  |  |  |  |  |  |  | Amidase inhibition (amidase; positive control, own concentration not given): 92.1 ± 8.7%
13 | COc1ccc([C@@H]2CC(=O)c3c(O)cc(O[C@@H]4O[C@H](CO[C@@H]5O[C@@H](C)[C@H](O)[C@@H](O)[C@H]5O)[C@@H](O)[C@H](O)[C@H]4O)cc3O2)cc1O [Hesperidin] |  |  |  | 33 | 45.32 ± 1.57 | 50.91 ± 2.81 | 58.57 ± 3.78 | 
14 | O=c1c(O)c(-c2ccccc2)oc2cc(O)cc(O)c12 [Galangin] | 9.6 ± 9.9 | 32.8 ± 4.4 | 61.5 ± 2.7 |  |  |  |  | 
15 | Oc1cc(O)c2c(c1)O[C@@H](c1ccc(O)c(O)c1)[C@@H](O)C2 [(+)-Epicatechin] |  |  |  | 16 | 66.71 ± 1.79 | 52.32 ± 1.59 |  | 
16 | C[C@@H]1O[C@@H](Oc2c(-c3ccc(O)c(O)c3)oc3cc(O)cc(O)c3c2=O)[C@H](O)[C@H](O)[C@H]1O [Quercitrin] |  |  |  | 24 |  |  |  | 
17 | CCCCCCCCCCCCO [Lauryl Alcohol] | 2.2 ± 3.1 | −0.7 ± 1.5 | 4.1 ± 4.3 |  |  |  |  | 
18 | (−)-Epicatechin-3-gallate |  |  |  | 24 | 30.31 ± 1.27 | 34.84 ± 1.72 | 42.92 ± 0.65 | 
19 | O=C(/C=C/c1ccc(O)cc1)c1ccc(O)cc1O [Isoliquritigenin] | −18.7 ± 26.0 | 17.7 ± 8.3 | 57.2 ± 8.5 |  |  |  |  | 
20 | CC1(C)[C@@H](O[C@H]2O[C@H](C(=O)O)[C@@H](O)[C@H](O)[C@H]2O[C@@H]2O[C@H](C(=O)O)[C@@H](O)[C@H](O)[C@H]2O)CC[C@]2(C)[C@H]3C(=O)C=C4[C@@H]5C[C@@](C)(C(=O)O)CC[C@]5(C)CC[C@@]4(C)[C@]3(C)CC[C@@H]12 [Glycyrrhizin] | −1.3 ± 3.1 | 4.3 ± 11.3 | 24.4 ± 12.7 |  |  |  |  | 
